Experimental data: patent US10294236B2, “Compounds as rearranged during transfection (RET) inhibitors” (GLAXOSMITHKLINE INTELLECTUAL PROPERTY DEVELOPMENT LIMITED, priority 2014, dated 2019)
Structures can show the parent of a compound that is named as a salt.

Biological target: T1, Human RET kinase cytoplasmic domain (Homo sapiens, UniProt P07949)
T1 construct: made in house
T1 sequence (P07949 658-1114): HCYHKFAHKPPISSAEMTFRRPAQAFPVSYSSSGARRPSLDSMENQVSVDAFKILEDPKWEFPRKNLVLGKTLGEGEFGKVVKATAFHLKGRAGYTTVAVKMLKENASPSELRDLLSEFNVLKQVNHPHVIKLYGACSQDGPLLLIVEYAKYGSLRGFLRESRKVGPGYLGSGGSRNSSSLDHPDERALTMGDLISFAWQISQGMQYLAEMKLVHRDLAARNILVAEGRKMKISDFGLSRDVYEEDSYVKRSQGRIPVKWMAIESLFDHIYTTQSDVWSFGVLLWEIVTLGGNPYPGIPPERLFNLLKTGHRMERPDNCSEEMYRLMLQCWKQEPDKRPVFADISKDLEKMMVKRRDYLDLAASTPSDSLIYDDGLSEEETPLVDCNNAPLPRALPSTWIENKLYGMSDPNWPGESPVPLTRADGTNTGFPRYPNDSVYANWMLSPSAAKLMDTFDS
Test: RET kinase enzymatic assay
Format: biochemical
In short: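 GST-RET, 0.2 nM in 2× enzyme mix (HEPES, CHAPS, BSA, DTT), preincubated with inhibitor 30 min at 23 °C. Reaction for 1 h at 23 °C after adding 2× substrate mix: 20 μM ATP, 20 mM MgCl2, 1 μM biotinylated peptide. Single wells per concentration; IC50 from sigmoidal dose-response fit.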

Row | IC50 | SMILES
1 | < 100 nM | CCOc1cc(-c2ncc(NC(=O)Nc3cc(C(=O)NCCN(C)C)cc(C(F)(F)F)c3)c(C)n2)c[nH]c1=O [Example 91]
2 | < 100 nM | CCOc1cc(-c2ncc(NC(=O)Nc3cc(OCCN(C)C)cc(C(F)(F)F)c3)c(C)n2)c[nH]c1=O [Example 74, 1-(3-(2-(Dimethylamino)ethoxy)-5-(trifluoromethyl)phenyl)-3-(2-(5-ethoxy-6-oxo-1,6-dihydropyridin-3-yl)-4-methylpyrimidin-5-yl)urea dihydrochloride]
3 | < 100 nM | CCOc1cc(-c2ncc(NC(=O)Nc3ccc(C(C)(C)CN(C)C)c(C(F)(F)F)c3)c(C)n2)c[nH]c1=O [Example 73, 1-(4-(1-(Dimethylamino)-2-methylpropan-2-yl)-3-(trifluoromethyl)phenyl)-3-(2-(5-ethoxy-6-oxo-1,6-dihydropyridin-3-yl)-4-methylpyrimidin-5-yl)urea dihydrochloride]
4 | < 100 nM | CCOc1cc(-c2ncc(NC(=O)Nc3cc(C(C)(C)C(F)(F)F)on3)c(C)n2)c[nH]c1=O [Example 15, 1-(2-(5-Ethoxy-6-oxo-1,6-dihydropyridin-3-yl)-4-methylpyrimidin-5-yl)-3-(5-(1,1,1-trifluoro-2-methylpropan-2-yl)isoxazol-3-yl)urea]
5 | < 100 nM | CCOc1cc(=O)[nH]cc1-c1ncc(NC(=O)Nc2cc(-c3nnc(C)o3)cc(C(F)(F)F)c2)c(C)n1 [Example 67, 1-(2-(4-Ethoxy-6-oxo-1,6-dihydropyridin-3-yl)-4-methylpyrimidin-5-yl)-3-(3-(5-methyl-1,3,4-oxadiazol-2-yl)-5-(trifluoromethyl)phenyl)urea]
6 | < 100 nM | CCOc1cc(-c2ccc(NC(=O)Nc3cnc(C(C)(C)O)c(C(F)(F)F)c3)c(F)c2)c[nH]c1=O [Example 89]
7 | < 100 nM | CCOc1cc(-c2ncc(NC(=O)Nc3ccc(CC(C)(C)N)c(C(F)(F)F)c3)c(C)n2)c[nH]c1=O [Example 185, 1-(4-(2-Amino-2-methylpropyl)-3-(trifluoromethyl)phenyl)-3-(2-(5-ethoxy-6-oxo-1,6-dihydropyridin-3-yl)-4-methylpyrimidin-5-yl)urea]
8 | < 100 nM | CCOc1cc(=O)[nH]cc1-c1ncc(NC(=O)Nc2ccc(CC(C)(C)CO)c(C(F)(F)F)c2)c(C)n1 [Example 47, 1-(2-(4-Ethoxy-6-oxo-1,6-dihydropyridin-3-yl)-4-methylpyrimidin-5-yl)-3-(4-(3-hydroxy-2,2-dimethylpropyl)-3-(trifluoromethyl)phenyl)urea]
9 | < 100 nM | CCOc1cc(-c2ncc(NC(=O)Nc3ccc(CN4CCC4)c(C(F)(F)F)c3)c(C)n2)c[nH]c1=O [Example 109]
10 | < 100 nM | CCOc1cc(-c2ncc(NC(=O)Nc3ccc(CN(C)C)c(C(F)(F)F)c3)c(C)n2)c[nH]c1=O [Example 58, 1-(4-((Dimethylamino)methyl)-3-(trifluoromethyl)phenyl)-3-(2-(5-ethoxy-6-oxo-1,6-dihydropyridin-3-yl)-4-methylpyrimidin-5-yl)urea]
11 | < 100 nM | CCOc1cc(-c2ccc(NC(=O)Nc3ccc(OC(C)C)c(C(F)(F)F)c3)c(F)c2)c[nH]c1=O [Example 82]
12 | 100 to 500 nM | CCOc1cc(-c2cnc(NC(=O)Nc3ccc(CN(C)C)c(C(F)(F)F)c3)c(C)n2)c[nH]c1=O [Example 114]
13 | < 100 nM | CCOc1cc(=O)[nH]cc1-c1ncc(NC(=O)Nc2ccc(C(C)(C)C#N)c(C(F)(F)F)c2)c(C)n1 [Example 26, 1-(4-(2-Cyanopropan-2-yl)-3-(trifluoromethyl)phenyl)-3-(2-(4-ethoxy-6-oxo-1,6-dihydropyridin-3-yl)-4-methylpyrimidin-5-yl)urea]
14 | < 100 nM | CCOc1cc(-c2cnc(NC(=O)Nc3ccc(OC4(C)COC4)c(C(F)(F)F)c3)c(C)n2)c[nH]c1=O [Example 108]
15 | < 100 nM | CCOc1cc(-c2ccc(NC(=O)Nc3ccc(OC(C)C)c(C(F)(F)F)c3)nc2C)c[nH]c1=O [Example 8, 1-(5′-Ethoxy-2-methyl-6′-oxo-1′,6′-dihydro-[3,3′-bipyridin]-6-yl)-3-(4-isopropoxy-3-(trifluoromethyl)phenyl)urea]
16 | < 100 nM | CCOc1cc(-c2ccc(NC(=O)Nc3cc(-n4cncn4)cc(C(F)(F)F)c3)c(F)c2)c[nH]c1=O [Example 72, 1-(3-(1H-1,2,4-Triazol-1-yl)-5-(trifluoromethyl)phenyl)-3-(4-(5-ethoxy-6-oxo-1,6-dihydropyridin-3-yl)-2-fluorophenyl)urea hydrochloride]

Second part, the compound before the results:

Row | SMILES | IC50
17 | CCOc1nc(=O)[nH]cc1-c1ccc(NC(=O)Nc2ccc(OC3(C)COC3)c(C(F)(F)F)c2)c(F)c1 [Example 34, 1-(4-(4-Ethoxy-2-oxo-1,2-dihydropyrimidin-5-yl)-2-fluorophenyl)-3-(4-((3-methyloxetan-3-yl)oxy)-3-(trifluoromethyl)phenyl)urea] | < 100 nM
18 | CCOc1cc(-c2ccc(NC(=O)Nc3ccc(OC4(C)COC4)c(C(F)(F)F)c3)c(OC(C)C)n2)c[nH]c1=O [Example 115] | 500 to 10000 nM
19 | Cc1nc(-c2c[nH]c(=O)c(OCCO)c2)ncc1NC(=O)Nc1cc(C(F)(F)F)c(CN2CCN(CCO)CC2)cc1F [Example 173, 1-(2-Fluoro-4-((4-(2-hydroxyethyl)piperazin-1-yl)methyl)-5-(trifluoromethyl)phenyl)-3-(2-(5-(2-hydroxyethoxy)-6-oxo-1,6-dihydropyridin-3-yl)-4-methylpyrimidin-5-yl)urea] | < 100 nM
20 | CCCOc1cc(-c2ccc(NC(=O)Nc3ccc(OC4(C)COC4)c(C(F)(F)F)c3)cc2)c[nH]c1=O [Example 131] | < 100 nM
21 | CCOc1[nH]c(=O)ccc1-c1ccc(NC(=O)Nc2ccc(OC3(C)COC3)c(C(F)(F)F)c2)c(F)c1 [Example 35, 1-(4-(2-Ethoxy-6-oxo-1,6-dihydropyridin-3-yl)-2-fluorophenyl)-3-(4-((3-methyloxetan-3-yl)oxy)-3-(trifluoromethyl)phenyl)urea] | < 100 nM
22 | CCOc1cc(-c2ccc(NC(=O)Nc3ccc(OC4(C)CN(C)C4)c(C(F)(F)F)c3)c(F)c2)c[nH]c1=O [Example 117] | < 100 nM
23 | CCOc1cc(-c2ccc(NC(=O)Nc3ccc(OC(C)(C)CO)c(C(F)(F)F)c3)c(F)c2)c[nH]c1=O [Example 118] | < 100 nM
24 | CCOc1cc(-c2ccc(NC(=O)Nc3ccc(OC4(C)COC4)c(C(F)(F)F)c3F)c(F)c2)c[nH]c1=O [Example 166] | < 100 nM
25 | CCOc1cc(-c2ccc(NC(=O)Nc3ccc(OC4(C)COC4)c(C(F)F)c3)c(F)c2)c[nH]c1=O [Example 93] | < 100 nM
26 | CC1(Oc2ccc(NC(=O)Nc3ccc(-c4c[nH]c(=O)c5cn[nH]c45)cc3F)cc2C(F)(F)F)COC1 [Example 4, 1-(2-Fluoro-4-(4-oxo-4,5-dihydro-1H-pyrazolo[4,3-c]pyridin-7-yl)phenyl)-3-(4-((3-methyloxetan-3-yl)oxy)-3-(trifluoromethyl)phenyl)urea] | < 100 nM
27 | CCOc1cc(-c2ccc(NC(=O)Nc3ccc(Cl)c(Cl)c3)c(F)c2)c[nH]c1=O [Example 170] | < 100 nM
28 | CCOc1cc(-c2ccc(NC(=O)Nc3ccc(OC(C)(C)CF)c(C(F)(F)F)c3)c(F)c2)c[nH]c1=O [Example 139] | < 100 nM
29 | O=C(Nc1ccc(-c2ccc(=O)[nH]c2)cc1)Nc1ccc(CN2CCNCC2)c(C(F)(F)F)c1 [Example 17, 1-(4-(6-Oxo-1,6-dihydropyridin-3-yl)phenyl)-3-(4-(piperazin-1-ylmethyl)-3-(trifluoromethyl)phenyl)urea] | < 100 nM
30 | Cc1cc(-c2ccc(=O)[nH]c2)ccc1NC(=O)Nc1ccc(OC2(C)COC2)c(C(F)(F)F)c1 [Example 137] | < 100 nM
31 | CCOc1cc(-c2ccc(NC(=O)Nc3ccc(OCC(C)O)c(C(F)(F)F)c3)c(F)c2)c[nH]c1=O (stereo not drawn) [Example 145] | < 100 nM
32 | COc1cc(-c2ccc(NC(=O)Nc3ccc(OC4(C)COC4)c(C(F)(F)F)c3)c(C)n2)c[nH]c1=O [Example 100] | < 100 nM
33 | CCOc1cc(Oc2ccc(NC(=O)Nc3ccc(CN4CCN(CC)CC4)c(C(F)(F)F)c3)cc2)c[nH]c1=O [Example 31, 1-(4-((5-Ethoxy-6-oxo-1,6-dihydropyridin-3-yl)oxy)phenyl)-3-(4-((4-ethylpiperazin-1-yl)methyl)-3-(trifluoromethyl)phenyl)urea] | < 100 nM
34 | Cc1[nH]c(=O)ccc1-c1ccc(NC(=O)Nc2ccc(OC3(C)COC3)c(C(F)(F)F)c2)c(F)c1 [Example 40, 1-(2-Fluoro-4-(2-methyl-6-oxo-1,6-dihydropyridin-3-yl)phenyl)-3-(4-((3-methyloxetan-3-yl)oxy)-3-(trifluoromethyl)phenyl)urea] | < 100 nM
35 | CC1(Oc2ccc(NC(=O)Nc3ccc(-c4c[nH]c(=O)c(O)c4)cc3F)cc2C(F)(F)F)COC1 [Example 94] | < 100 nM
36 | CCOc1cc(-c2ccc(NC(=O)Nc3ccc(OC(C)(C)C)c(C(F)(F)F)c3)cc2)c[nH]c1=O [Example 79] | < 100 nM
37 | CC(C)(C)c1cc(NC(=O)Nc2ccc(-c3ccc(=O)[nH]c3)cc2)n(-c2ccccc2)n1 [Example 68, 1-(3-(tert-Butyl)-1-phenyl-1H-pyrazol-5-yl)-3-(4-(6-oxo-1,6-dihydropyridin-3-yl)phenyl)urea] | < 100 nM
38 | CCCOc1cc(-c2ccc(NC(=O)Nc3ccc(OC4(C)COC4)c(C(F)(F)F)c3)c(F)c2)c[nH]c1=O [Example 138] | < 100 nM
39 | CCOc1cc(-c2ccc(NC(=O)Nc3ccc(OC4(C)COC4)c(C(F)(F)F)c3)cc2F)c[nH]c1=O [Example 133] | < 100 nM
